In patent publication US20080234229A1, “Novel Therapeutic Agents for the Treatment of Cancer, Metabolic Diseases and Skin Disorders” (AUSPEX PHARMACEUTICALS, INC., priority 2005, published 2008):

What was measured:
A375 cells = experiment: A375 Tumor Cell Proliferation Assay (Alamar Blue); type: cell-based, human; settings: for TGI (Total Growth Inhibition) / IC50: A375 cells, 72 to 168 hours, reference data; for IC50: A-375, read-out: IC50 (50% Inhibitory Concentration); for growth inhibitory effect compared to Targretin: FIG. 1
Procedure: A375 cells (5,000 per well in 90% RPMI-1640 plus 10% Fetal Bovine Serum [FBS]) were pre-incubated in a black clear bottom 96-well plate in an atmosphere of 5% CO2 at 37° C. for 24 hours. Stock solutions of compounds in DMSO were diluted using a buffer and dilutions were added to each well. […] The final assay pH was 7.4. The cells were incubated in RPMI-1640 with each compound for an additional 72 to 168 hours. Alamar Blue was added and the plate was incubated for an additional 12 hours. Fluorescence intensity was measured using a Gemini plate reader with excitation at 530 nm and emission at 590 nm. A decrease of 50 percent or more (≧50%) in fluorescence intensity relative to vehicle treated controls is an indication of significant anti-cancer activity.
TGI (Total Growth Inhibition): Test compound concentration where the increase in number or mass of cells after 72 to 168 hours is reduced to equal that at time t=0.

SW-480 cells = experiment: SW-480 Tumor Cell Proliferation Assay (Alamar Blue); type: cell-based; settings: human SW480 carcinoma cells; for growth inhibitory effect compared to Targretin: FIG. 3; for growth inhibitory effect in the presence of Irinotican: varying concentrations, combination with Irinotican, FIG. 6 and 7
Procedure: SW-480 cells (4×10^3/well in 90% EMEM medium plus 2 mM glutamine, 1 mM pyruvate, 0.1 mM non-essential amino acids and 10% Fetal Bovine Serum [FBS]), are pre-incubated in 96-well plates in an atmosphere of 5% CO2 at 37° C. for 24 hours. Test compounds and/or vehicle is then added to each well with a final concentration of 0.5% DMSO, pH 7.4 in EMEM for an additional 72 hours. After a further 6-hour incubation in the presence of Alamar Blue, fluorescence intensity is measured using a Gemini plate reader with excitation at 530 nm and emission at 590 nm.

SKMES cells = experiment: SKMES Tumor Cell Proliferation Assay (Alamar Blue); type: cell-based; settings: human SKMES carcinoma cells; for growth inhibitory effect compared to Targretin: FIG. 2
Procedure: SKMES cells (8×10^3/well in 90% RPMI-1640 medium plus 2 mM glutamine, 10 mM HEPES and 10% Fetal Bovine Serum [FBS]), are pre-incubated in 96-well plates in an atmosphere of 5% CO2 at 37° C. for 24 hours. Test compounds and/or vehicle is then added to each well with a final concentration of 0.5% DMSO, pH 7.4 in RPMI-1640 for an additional 72 hours. After a further 150 minutes incubation in the presence of Alamar Blue, fluorescence intensity is measured using a Gemini plate reader with excitation at 530 nm and emission at […].

SMILES | TGI (Total Growth Inhibition) (A375 cells) [µM] | IC50 (A375 cells; Homo sapiens) [µM] | CC50 (A375 cells; Homo sapiens, A-375, read-out: LC50 (50% Lethal Concentration)) [µM] | growth inhibitory effect compared to Targretin (SW-480 cells) | growth inhibitory effect in the presence of Irinotican (SW-480 cells) | growth inhibitory effect compared to Targretin (SKMES cells) | growth inhibitory effect compared to Targretin (A375 cells; human A375 carcinoma cells) | growth inhibitory effect in the presence of Taxol (SKMES cells; varying concentrations, combination with Taxol, FIG. 4) | growth inhibitory effect in the presence of Taxol (A375 cells; human A375 carcinoma cells, varying concentrations, combination with Taxol, FIG. 5)
COc1cccc2c1C(=O)c1c(O)c3c(c(O)c1C2=O)C[C@@](O)(C(=O)CO)C[C@@H]3O[C@H]1C[C@H](N)[C@H](O)[C@H](C)O1 [Doxorubicin] | 0.3 | 0.19 | 8 | – | – | – | – | – | –
C=C(c1ccc(B2OC(C)(C)C(C)(C)O2)cc1)c1cc2c(cc1C)C(C)(C)CCC2(C)C [Example 4, 4,4,5,5-Tetramethyl-2-{4-[1-(3,5,5,8,8-pentamethyl-5,6,7,8-tetrahydro-naphthalen-2-yl)-vinyl]-phenyl}-[1,3,2]dioxaborolane] | – | – | – | enhanced activity | synergism | enhanced activity | enhanced activity | – | –
C=C(c1ccc(B(O)O)cc1)c1cc2c(cc1C)C(C)(C)CCC2(C)C [Example 5, 4-[1-(3,5,5,8,8-Pentamethyl-5,6,7,8-tetrahydro-naphthalen-2-yl)-vinyl]-phenylboronic acid] | – | – | – | enhanced activity | synergism | enhanced activity | enhanced activity | synergism | synergism
CO[C@@]12[C@H](COC(N)=O)C3=C(C(=O)C(C)=C(N)C3=O)N1C[C@@H]1N[C@@H]12 [Mitomycin] | 8 | 4.2 | – | – | – | – | – | – | –
